This is an account of results in BindingDB's records for doi:10.1016/j.bioorg.2016.11.003 (Linyi People's Hospital, 2017).

This assay concerns the target T1, Forkhead box protein M1 [235-327] (Human, UniProt Q08050).
T1 construct: 235-327
T1 sequence (Q08050 whole entry): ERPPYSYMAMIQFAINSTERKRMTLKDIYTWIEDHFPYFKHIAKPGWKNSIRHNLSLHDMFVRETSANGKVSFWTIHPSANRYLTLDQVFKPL
As to the kind of experiment: Fluorescence-based Affinity Assay. The method, then: The fluorescence emission spectra of tryptophan residues were used to monitor the changes in local chemical environment of protein upon ligand binding [Zhu et al., Bioorg. Chem., 68:259-265; Tyler et al., Biochemistry, 49:951-957]. The protein concentration was kept at a constant. Changes in fluorescence were measured upon titration of tested compound to protein solution. Fluorescence was measured by a PE fluorescence spectrophotometer.

In general, Kd refers to the constant that tells how readily two partners part at equilibrium. `CC1=C(C(=O)OC(C)C)C(c2ccc([N+](=O)[O-])cc2)NC(=S)N1` (stereo unspecified) [CID 2748293]: the affinity, expressed as Kd, was 17 µM.
`COc1ccccc1C(=O)C(CCC(=O)O)c1ccccc1OC` (stereo unspecified) [CID 2748371] came in with a Kd of 26 µM.
As for `O=c1[nH]nc(-c2ccccc2)c(=S)n1-c1ccc(F)c(Cl)c1` [CID 2751638], the figure is 120 µM.
As to `N=c1sc(C(=O)c2cccs2)nn1-c1ccccc1` [CID 2753793], the Kd was found to be 3.8 µM.
`CCC[C@H]1C(=O)N[C@]2(C(=O)O[C@@H]2[C@H]2C=CCCC2)[C@@]1(C)O` [CID 50943806] registered a Kd of 230 µM.
Take `Cc1cccc2c(/C=C/C(=O)O)cc(C(C)C)c(O)c12` [CID 53708511]: the Kd is 56 µM.
